Results from US10155751B2, “Pyrazolyl-substituted heteroaryls and their use as medicaments” (Boehringer Ingelheim International GmbH, priority 2015, dated 2018).
Like-named read-outs stand apart in the source and are kept apart here.

Legend:
[1] = target: Recombinant human Aurora B (amino acids 1-344) (Homo sapiens (Human), UniProt Q96GD4); assay: Aurora B kinase test (ADP Glo); type: biochemical
Description: The activity of the Aurora B kinase protein was determined using the ADP Glo® Luminescence Kinase test (Promega; V9103X). In this homogeneous test the amount of ADP remaining after the kinase reaction is quantified by a luciferin-luciferase reaction using luminescence. The luminescence signal obtained correlates with the amount of ADP still present and thus correlates with the activity of the protein kinase.
The test compounds were dissolved in 100% DMSO at a concentration of 10 mM and diluted in DMSO to a concentration of 5 mM. Serial Dilution is done in 1:10 steps in 100% DMSO. All further dilutions of the substances were carried out with test buffer (50 mM Hepes, pH 7.5, 10 mM MgCl2, 1 mM EGTA, 60 μM Ultra Pure ATP, 0.01% Brij35, 0.1% BSA, 5 mM 8-Glycerophosphate) until a concentration was reached which was 2.5 times above the final test concentration (final concentration of the compounds: 50 μM to 0.005 nM). 4 μl aliquots of these dilutions were transferred into a 384-well Optiplate (Perkin Elmer, #6007290). His-Aurora B was diluted to 125 nM in the test buffer and 4 μl of this dilution were used in the kinase test (final concentration of Aurora B=50 nM in a total volume of 10 μl). After 15 minutes incubation at room temperature 2 μl of 250 μM substrate ([[…]]; University of Dundee) in test buffer were added to each well and the incubation was continued for a further 60 minutes at room temperature.
(§1) Positive controls are the reaction mixtures that contain no test substance; negative controls (blanks) are reaction mixtures that contain no kinase.
After 60 minutes, 10 μl ADP-Glo® solution (ADP-Glo Reagent #V912B Promega) (heated to room temperature) were added to each well and incubation was continued for a further 40. minutes. Then 20 μl Kinase detection mix (Detection Buffer #V913B Promega; Kinase Detection Substrate #V914B Promega) were added and incubated for 40 minutes at room temperature. The plates were read in Envision Luminescence Reader (Perkin-Elmer).
(§2) The output file of the reader is a csv file that contains the well number and measured RLU. For data evaluation and calculation, the measurement of the negative control was set as 0% ctrl and the measurement of the positive control was set as 100% ctrl. Based on this values the % value for the measurement of each substance concentration can be calculated using an Assay Explorer software (e.g. Accelrys). Normally, the % ctrl values calculated are between 0% and 100% values but may also occur outside these limits in individual cases based on variability or compound characteristics. The IC50-values were calculated from the % ctrl values using Assay Explorer software. Calculation: [y=(a−d)/(1+(x/c)^b)+d], a=low value, d=high value; x=conc M; c=IC50 M; b=hill; y=% ctrl.

[2] = target: Recombinant human SYK (amino acids 342-635), GST-SYK kinase fusion protein (Homo sapiens (Human), UniProt P43405); assay: SYK kinase inhibition test (Kinase Glo luminescence); type: biochemical
Description: The catalytic activity of the GST-SYK kinase fusion protein was determined using the Kinase Glo® Luminescence Kinase test (Promega; V6712). In this homogeneous test the amount of ATP remaining after the kinase reaction is quantified by a luciferin-luciferase reaction using luminescence. The luminescence signal obtained correlates with the amount of ATP still present and thus correlates inversely with the activity of the kinase.
The test compounds were dissolved in 100% DMSO at a concentration of 10 mM and diluted in DMSO to a concentration of 1 mM. Serial Dilution is done in 100% DMSO. All further dilutions of the substances were carried out with test buffer (25 mM HEPES pH7.5; 25 mM MgCl2; 5 mM MnCl2; 50 mM KCl; 0.2% HSA; 0.01% CHAPS; 100 μM Na3VO4; 0.5 mM DTT). Dilution steps and concentration range were adapted according to need. 7 μl aliquots of these dilutions were transferred into a 384-well Optiplate (Perkin Elmer, #6007290). GST-SYK was diluted to 12 nM in the test buffer and 5 μl of this dilution were used in the kinase test (final concentration of SYK=4 nM in a total volume of 15 μl). After 15 minutes incubation at room temperature 3 μl of a mixture of 750 nM ATP and 100 μg/ml poly (L-Glutamic acid L-Tyrosine 4:1), Fluka #81357) in test buffer were added to each well and the incubation was continued for a further 60 minutes at room temperature.
as §1
After 60 minutes, 10 μl Kinase-Glo® solution (Promega, Cat. # V6712) (heated to room temperature) were added to each well and incubation was continued for a further 15 minutes. The plates were read in Envision Luminescence Reader (Perkin-Elmer).
as §2, with “measured relative light units (RLU).” for “measured RLU.”, “as 100%” for “as 0%”, “as 0%” for “as 100%”, “concentration was” for “concentration can be”, “software (Accelrys).” for “software (e.g. Accelrys).”, “Calculation: [y=(a−d)/(1+(x/c)^b)+d]” for “Calculation: [y=(a−d)/(1+(x/c)^b)+d],”
Satisfying SYK inhibitory capacities are represented by an IC50(SYK)-Value measured by this assay of <10 nMol.

[3] = read-out: AURB inhibition IC50-value (chapter 5.3)
[4] = read-out: SYK inhibition IC50-value (chapter 5.1)
[5] = read-out: IC50(SYK) in SYK-inhibition assay

Chain of Recombinant human Aurora B (amino acids 1-344) (Q96GD4 whole entry, the tested form may be a part): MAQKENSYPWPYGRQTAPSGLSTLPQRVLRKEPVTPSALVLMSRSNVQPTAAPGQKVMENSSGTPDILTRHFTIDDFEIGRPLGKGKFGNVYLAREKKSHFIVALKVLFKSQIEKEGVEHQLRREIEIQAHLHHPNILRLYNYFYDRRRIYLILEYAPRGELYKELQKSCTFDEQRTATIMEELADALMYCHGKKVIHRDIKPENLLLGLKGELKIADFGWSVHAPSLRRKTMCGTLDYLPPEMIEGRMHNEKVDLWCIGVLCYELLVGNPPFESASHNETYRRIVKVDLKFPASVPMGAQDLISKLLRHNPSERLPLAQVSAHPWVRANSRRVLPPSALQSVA

Structure (SMILES)	selectivity ratio IC50(AURB)/IC50(SYK) [1]	IC50 [1, 3]	IC50 [2, 4]	IC50 ([1]; read-out: IC50(AURB))	IC50 [2, 5]
Cc1c2c(O[C@H](C)[C@H]3CNC(=O)C3)cc(-c3cnn(CC(C)C)c3)cc2nn1C [Example 19, (R)-4-{(R)-1-[6-(1-Isobutyl-1H-pyrazol-4-yl)-2,3-dimethyl-2H-indazol-4-yloxy]-ethyl}-pyrrolidin-2-one]	13212	23800 nM	1.8 nM		
Cc1c2c(O[C@H](C)[C@H]3CNC(=O)C3)cc(-c3cnn(C4CC4)c3)cc2nn1C [Example 20, (R)-4-{(R)-1-[6-(1-Cyclopropyl-1H-pyrazol-4-yl)-2,3-dimethyl-2H-indazol-4-yloxy]-ethyl}-pyrrolidin-2-one]	13932	34800 nM	2.5 nM		
Cc1c2c(O[C@H](C)[C@H]3CNC(=O)C3)cc(-c3cnn(C4CCC4)c3)cc2nn1C [Example 21, (R)-4-{(R)-1-[6-(1-Cyclobutyl-1H-pyrazol-4-yl)-2,3-dimethyl-2H-indazol-4-yloxy]-ethyl}-pyrrolidin-2-one]	14442	17300 nM	1.2 nM		
Cc1c2c(O[C@H](C)[C@H]3CNC(=O)C3)cc(-c3cnn(C4CCC(F)(F)C4)c3)cc2nn1C (stereo partly drawn) [Example 22, (R)-4-((R)-1-{6-[1-(3,3-Difluoro-cyclopentyl)-1H-pyrazol-4-yl]-2,3-dimethyl-2H-indazol-4-yloxy}-ethyl)-pyrrolidin-2-one]	11207	13400 nM	1.2 nM		
C[C@@H](Oc1nc(-c2cnn(C(C)(C)C)c2)cc2ncn(C)c12)[C@H]1CNC(=O)C1 [example 3A.02, on page 196 of WO15017610, reference compound]	891	1690 nM	1.9 nM	1690 nM	< 10 nM
C[C@@H](Oc1cc(-c2cnn(C(C)(C)C)c2)cc2ncn(C)c12)[C@H]1CNC(=O)C1 [example 3B.22 on page 219 of WO15017610, reference compound]	964	771 nM	0.8 nM	771 nM	< 10 nM
Cc1cnn2cc(-c3cnn(C(C)(C)C)c3)nc(O[C@H](C)[C@H]3CNC(=O)C3)c12 [example 5.20 on page 506 of WO15017610, reference compound]	810	162 nM	0.2 nM	162 nM	< 10 nM
Cc1cnn2cc(-c3cnn(C(C)(C)C)c3)cc(O[C@H](C)[C@H]3CNC(=O)C3)c12 [example 6.09 on page 559 of WO15017610, reference compound]	370	37 nM	0.1 nM	37 nM	< 10 nM
Cc1cc2c(O[C@H](C)[C@H]3CNC(=O)C3)cc(-c3cnn(C(C)(C)C)c3)cn2n1 [example 6.60 on page 587 of WO15017610, reference compound]	>4850	> 50000 nM	10.3 nM	> 50000 nM	10.3 nM
